The values below come from patent US9587223B2, “Protocols for making hepatocytes from embryonic stem cells” (Asterias Biotherapeutics, Inc., priority 2000, dated 2017).

For series [1], the system named is hES cells (embryoid bodies). The procedure: In this experiment, hES cells were maintained on primary mouse embryonic fibroblasts in serum-free medium according to standard methods.
The EBs were fed every other day.
Various analogs of butyrate were also tested at 5 mM.

Series [2] relates to hES derived embryoid bodies. The experiment in a line: Marker analysis by immunocytochemistry, PAS glycogen stain and BrdU labelling. It is filed as cell-based, human. The conditions noted are these: 20% FBS and 5 mM sodium n-butyrate. On the procedure: The morphology of the differentiated cells was remarkably uniform, showing a large polygonal surface and binucleated center characteristic of mature hepatocytes.
On the sixth day after plating in the differentiation agent, the cells were analyzed for expression of markers by RT-PCR and immunocytochemistry. Glycogen content in these cells was determined using periodic acid Schiff stain. The number of cells in S phase of cell cycle was determined by incubating the cells with 10 μM BrdU on day 5 after plating, and subsequently staining with anti-BrdU antibody 24 hours later.

Turning to `CC(/C=C/C(=O)NO)=C\[C@@H](C)C(=O)c1ccc(N(C)C)cc1` [Trichostatin A], the toxicity to cells result in series [1] (at 2.5-100 μM) is recorded as “toxic”. Moreover, in series [1] (at 10-50 nM), the hepatocyte differentiation result was “ineffective”. Also, the “hepatocyte differentiation and selection against other cell types” value in series [1] (at 75-100 nM) was “appeared both to induce hepatocyte differentiation, and to select against survival of other cell types”.
For the molecule `CCCC(=O)[O-].[Na+]` [sodium n-butyrate], in series [2] (10 μM BrdU on day 5, stained 24 hours later), the “% positive cells, BrdU staining” value was found to be 16%. Besides, the “% positive cells, Glycogen staining” value in series [2] (periodic acid Schiff stain) is 60%. In series [2] (sixth day after plating), the “% positive cells, Albumin” value was found to be 55%; the “% positive cells, CK8” value stood at 100%; the “% positive cells, CK18” value is reported as 100%; the “% positive cells, CK19” value worked out at 100%. Further, in series [2] (sixth day after plating), the “% positive cells, Desmin” value turned out to be 0%; the “% positive cells, α1-antitrypsin” value was determined as 90%; the “% positive cells, α-fetoprotein” value is 0%. The “cell survival one day after plating” value in series [1] (EBs plated in 20% FBS and 5 mM sodium butyrate) is “large proportion of apparently dead cells”.
